The nature of one data set: in vivo. The conditions noted are these: mouse, iv, read-out: LD50 I.v. (intravenous).
For the next data set, the system named is tissue. As to the kind of experiment: Tissue toxicity limits (Trypan blue test, threshold of tissue irritancy). The conditions noted are these: in vivo. It is filed as in vivo. An excerpt: The toxicity of the homologous series of N-alkylpipecolic acid-2,6-xylidides increases step wise and quickly with the lengthening of the alkyl chain. This is manifest from Table 1 set forth below, which compares racemic mixtures of alkyl homologues having from 1 to 5 carbon atoms.
*Trypan blue test; Hoppe et al. (1950), 39, 147-151 "Use of Trypan Blue
and Rabbit Eye Tests For Irritation", J. Amer. Pharm. Assoc. (Scient.
Ed.), the values are approximate threshold values of tissue irritancy.

The test system of the next data set is ulnar volar nerves. Nature of the data set: Finger blockade, digital nerve blocks in man. It is filed as in vivo. The conditions noted are these: for Time of onset, finger blockade: time from injection to complete analgesia. As for the experimental part:
^2 Digital nerve blocks in man. The test solutions were injected to
block the ulnar volar nerves on the 2nd and 4th fingers of the same
volunteers who had participated in the intracutaneous wheal tests
described above. The tests were carried out in a double blind fashion in
rotating system, so that each solution was used with equal frequency on
each of the blocked fingers. A total of for injections 1.0 ml per
injection, was done in each subject. One week later the procedure was
repeated in the same subjects using the remaining test solutions. This
method has been described by Dhuner et al. (1972) (for citation see Table
2 footnote 1). To measure the efficacy and duration of the blocks, the
individual fingers were pricked rapidly 10 times with a needle algesimete
and the number of painful pricks noted. Each finger was tested every five
minutes until complete recovery. The time of complete anesthesia has been
called "duration of anesthesia".
*i.e. the time from injection to complete analgesia?
**i.e. the number of successful anesthesias of total number of
anesthesias performed (no anesthesia is possible if the ulnar volar nerve
are not contacted by the anesthetic).

Data set [1] deals with peripheral nerve endings of the epidermis. Nature of the data set: Intracutaneous wheals, infiltration anesthesia on forearms of man. It is filed as in vivo. The conditions noted are these: Conc. 0.25%; 12 healthy volunteers, pinprick. From the text:
By use of intracutaneous wheals it is possible to measure the analgesic effect of an anesthetic on the peripheral nerve endings of the epidermis.
This technique gives information about:
(1) The duration of anesthesia.
^1 Infiltration anesthesia on forearms of man. The test solutions wer
injected intracutaneously on the dorsum of the forearms of 12 healthy
volunteers, 20-25 years old. Three wheals were made on each arm in a
rotating system in a doublebind fashion. The local anesthetic effect was
tested using a pinprick technique. The "duration of anesthesia" was
defined as the time during which none out of six pinpricks into the wheal
was felt. The method has been described by Dhuner et al. (1972). […]

The nature of data set [2]: Force of contraction of guinea pig papillary muscle. It is filed as cell-based. The conditions noted are these: guinea pig, papillary muscle. As for the experimental part:
(§1) In order to initiate an investigation without the necessity to involve voltage-clamp of the calcium current, the preparations were subject to long depolarizing induced automaticity. If the cells are depolarized from about -50 to about -30 mV the automaticity is dependent on a transmembrane calcium current.
(§2) Guinea pig papillary tests were carried out according to the recommendation of the "Report of the Subcommittee on Cardiotoxicity of Local Anesthetics" (Leroy D. Vandam, M.D., chairman). […] Solutions maintained at 37° C.±0.5° continuously perfused the gap compartments. The rear chamber contained isotonic potassium chloride solution. The drugs were added to a Tris-Tyrode solution passing the tip of the muscle. […] It was adjusted to pH 7.4 with trismaleate and HCl before use and gassed with 100% oxygen. Isotonic sucrose solution isolated the rear from the tip to enable current- and voltage-clamping.
(§3) The force of contraction was measured with a strain gauge transducer before and after the addition of the test compounds to the medium. The percent reduction in maximum force of contraction from the control was calculated.

Data set [3] has as its system guinea pig papillary muscle. The description is as above. It is filed as cell-based. The conditions noted are these: listed as LEA. As to the method: as §1, §2, §3
For another data set, the system named is skin. Nature of the data set: Skin temperature measurements within intracutaneous wheals. It is filed as in vivo, man. As for the experimental part:
The mean value of 6 wheals for each substance forms the basis for the values. The control values, however, represent the mean value obtained from 4 different sites measured outside the wheals 90 degrees apart and 2 centimeters from the wheal's center.
In the temperature measurements, an Oriel temperature apparatus* has been used. This is battery driven and is connected to a detector (diameter, 2.5 mm) and has an accuracy of ±0.1° C. The temperature of the skin is measured by pressing the detector against the skin with a pressure of 100 grams. It is retained against the skin until a constant temperature is obtained.
In Table 4, T1 is the measurement obtained at the center of the wheal, and T2 is the average of four measurements taken 90 degrees apart outside of the wheal and within 2 centimeters of the wheal's center.

Another data set has as its system pigs. Nature of the data set: Intracoronary administration in anesthetized pigs. It is filed as in vivo, pig. The conditions noted are these: intracoronary. As to the method: Eight pigs weighing around 50 kg were anesthetized with a continuous infusion of pentobarbital at 600 mg/h. Ventilation was established via a tracheotomy with 30% oxygen in nitrogen and normoventilation by a Siemens-Elema Servoventilator 900B. The following catheters were inserted after cutdown: Left ventricular, aortic, pulmonary arterial, great cardiac venous, left anterior descending coronary, arterial and central venous. […] The corresponding doses for bupivaciane were 0.25, 0.5, 1, 2 and 4 mg and for LEA 0.33, 0.66, 1.33, 2.66 and 5.33 mg. The injection rate was adjusted according to the preinjection coronary blood flow. Each series of drug injections was preceded by a placebo infusion. Total hemodynamic and electrocardiographic recovery was allowed between doses and there was a one hour resting period between drugs.
Central pressures, left ventricular dP/dT and a complete chest lead ECG were recorded continuously. Cardiac output and great cardiac venous blood flow were determined before and directly after each dose of the local anesthetic agent.

Data set [4] is described as follows: Anesthetic activity/potency comparison. The conditions noted are these: comparison within homologous series. The data set is classed as in vivo.
For data set [5], the target named is T1, guinea-pig papillary muscle sodium channels (Cavia porcellus, UniProt H0V4Z8).
T1 construct: Vmax of action potential as measure of sodium current
As to the kind of experiment: Action on guinea-pig papillary muscle sodium channels (Vmax, recovery from block). The data set is classed as cell-based. The conditions noted are these: for recovery to 90% of drug-blocked channels: -90 mV; for recovery from block: especially at hyperpolarized levels (-100--120 mV). From the text:
Depression of cardiac conduction appears to be one of the primary mechanisms underlying local anesthetic cardiotoxicity. Depression of conduction by local anesthetics in both nerve and cardiac tissue results from a block of sodium channels. Furthermore, the degree of sodium channel block by local anesthetics is dependent upon the state of the sodium channel. […] Consequently, a block of sodium channels develops during the upstroke and plateau of the action potential and dissipates during the diastolic interval between beats. Since the effect of a local anesthetic is both state and time dependent, changes in both heart rate and diastolic membrane potential may alter drug action substantially.
Guinea pig papillary tests were carried out according to the recommendation of the "Report of the Subcommittee on Cardiotoxicity of Local Anesthetics" (Leroy D. Vandam, M.D., chairman). Guinea pig papillary muscle excised from the right ventricle were mounted in a single sucrose gap apparatus (Arlock & Katzune, 1985). Solutions maintained at 37° C.±0.5° continuously perfused the gap compartments. The rear chamber contained isotonic potassium chloride solution. The drugs were added to a Tris-Tyrode solution passing the tip of the muscle. The Tris-Tyrode solution contained (mM): NaCl, 145; KCl, 4; CaCl2, 1.2; MgCl2, 1.05; glucose, 5.5 Tris maleate, 5. It was adjusted to pH 7.4 with trismaleate and HCl before use and gassed with 100% oxygen. Isotonic sucrose solution isolated the rear from the tip to enable current- and voltage-clamping.
The muscles were depolarized with long current pulses (1500 msec). These current steps can induce automaticity or DIA (depolarization induced automaticity). The steps were adjusted so the preparations were depolarized to from -50 to -30 mV since that is in that range that calcium current conductance is initiated.
The results represent the mean from representative experiments. In the absence of drug, Vmax (maximum upstroke velocity of the action potential) recovers from inactivation with an exponential time constant of less that 30 msec at -90 mV (Gettes and Reuter, 1974). […] The time constant of this recovery process is different for channels blocked by different drugs.

For data set [6] the following is noted: background statement; cited from earlier work.
Another data set deals with conscious rats. As to the kind of experiment: Heart-toxicity in conscious rats (ECG). The data set is classed as in vivo, Male Sprague Dawley rats. As for the experimental part:
Male Sprague Dawley rats weighing 290-360 grams were prepared with intravenous catheters under local anesthesia using prilocaine (Citanest*) one hour before experiments. Rapid intravenous bolus injections over 5.0 seconds were given to groups of 8 rats, with a single injection to each animal. […] The ECG was recorded on a Mingograf 34. Convulsions were recorded manually with an electronic marker on one channel of the Mingograf. Only "primary" arrhythmias occurring during the first 60 seconds have been analyzed to avoid confusion with late arrhythmias occurring secondary to respiratory arrest or cardiovascular collapse.

Entries after “also recorded” stand apart in the source; their conditions may differ.

For orientation: LD50 means the dose at which mortality reaches 50%. As to `CCN1CCCCC1C(=O)Nc1c(C)cccc1C` (stereo not shown) [2 R, N--ethylpipecolic acid-2,6-xylidide], in the data set “in vivo”, the LD50 was found to be 21 mg/kg. Besides, the “Tissue toxicity limits in %” value with tissue was determined as 3.0%. Further, in the data set with ulnar volar nerves (Concentration 0.5%), the “Analgesia-duration, finger blockade” value is 123 ± 19 min; the “Frequency (successful anesthesias of total performed)” value is 12/12; the “Time of onset, finger blockade” value was found to be 10 ± 1 min.
A word on the inhibition: it is the relative decrease from the control value, in per cent. Low readings indicate a response near the control, high ones a response far below the control. For `CCCN1CCCC[C@H]1C(=O)Nc1c(C)cccc1C` [3 L, L-N-n-propylpipecolic acid-2,6-xylidide], in [1], the “Analgesia-duration, intracutaneous wheals” value turned out to be 220 ± 23 min. Besides, in data set [2], the inhibition at 5 µM worked out at 13.8%, at 10 µM the inhibition was 9.6% and the inhibition at 100 µM was 8%. In addition, the “effect on force of contraction/contractility” value in data set [3] is on record as “only moderately diminished; also recorded: very mild depressant actions”. Also, in the data set with skin (Conc. 0.25%, HCl-salt, 10 minutes after injection), the “Temperature Difference (T1 wheal vs T2 controls)” value was -1.2 °C. The “T1 Intracutaneous Wheal temperature” value in the data set on skin (Conc. 0.25%, HCl-salt, 10 minutes after injection, mean of 6 wheals) came to 30.0 °C. In the data set on skin (comparison with lidocaine + adrenaline), the “effect on temperature over the wheal” value is “lowers the temperature over its wheal to approximately the same extent as the combination of lidocaine with adrenaline”. Besides, the sudden cardiac collapse result in the data set with pigs is recorded as “not”. The “anesthetic effect” value in data set [4] was “optimal increase of anesthetic effects; also recorded: markedly superior”. In addition, in data set [5] (10^-4 M for a short period), the Vmax depression entry is recorded as “very depressed” and the attenuated excitability result was “no attenuated excitability could be detected”. Moreover, the “time to full recovery of Vmax” value in [5] (10^-4 M, stimulus rate 1 Hz) turned out to be 20 min. The “elimination from the tissue (washout)” value in data set [5] (25 min. washout after 10^-4 M) is “readily eliminated from the tissue”. Besides, the “recovery to 90% of drug-blocked channels” value in data set [5] came to 2048 ms. Further, the “recovery from block” value in data set [5] (listed as LEA) is “recovers faster; also recorded: considerably faster”. Moreover, in the data set on ulnar volar nerves (Concentration 0.25%), the “Analgesia-duration, finger blockade” value was determined as 739 ± 46 min; the “Frequency (successful anesthesias of total performed)” value is listed as 6/7; the “Time of onset, finger blockade” value came to 12 ± 2 min.
Regarding `CCN(CC)CC(=O)Nc1c(C)cccc1C` [Lidocaine, 2-diethylamino-2',6'-acetoxylidide], the “local anesthetic effect duration for epidural use” value in data set [6] was “too short for epidural use”. In addition, in [5] (10 uM), the “block of channels; fast component not measurable” value is “virtually all channels were blocked”. For the same compound, the “recovery to 90% of drug-blocked channels” value in data set [5] worked out at 308 ms. Besides, in data set [5] (equimolar concentrations), the “potency on cardiac sodium channels” value was “lowest potency”. In data set [5], the “recovery from block” value is recorded as “considerably faster”. Moreover, the “Atrioventricular block, rats responding/total” value with conscious rats (14 umol/kg i.v. bolus) is 0/8; in the data set with conscious rats (20 umol/kg i.v. bolus), 0/8; with conscious rats (28 umol/kg i.v. bolus), 3/8; in the data set with conscious rats (40 umol/kg i.v. bolus) it was 4/8; with conscious rats (56 umol/kg i.v. bolus) it was 8/8. Besides, the “Ventricular arrhythmias, rats responding/total” value in the data set on conscious rats (14 umol/kg i.v. bolus) is recorded as 0/8; in the data set on conscious rats (20 umol/kg i.v. bolus), 0/8; in the data set with conscious rats (28 umol/kg i.v. bolus), 0/8; in the data set with conscious rats (40 umol/kg i.v. bolus), 2/8; in the data set on conscious rats (56 umol/kg i.v. bolus), 1/8. Besides, in the data set with conscious rats (rat, in vivo), the “potency to induce atrioventricular conduction disturbances” value is given as “least potent”.

The values above are taken from patent US4695576A, “L-N-n-propylpipecolic acid-2,6-xylidide” (priority 1985, dated 1987).
